What all share (type): functional
Test [1] concerns the target Mu-type opioid receptor (Homo sapiens, UniProt P35372). Kind of test: HTS Image-Based Screen for Agonists of the MOR Receptor. [Related pubchem assays (depositor defined):AID1777, AID1785, AID1786, AID2133].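 Note: imaging of beta-arrestin GFP recruitment into spots after receptor activation.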
The target in test [2] is T1, Delta-type opioid receptor (Homo sapiens, UniProt P41143). The experiment in a line: HTS Image-Based Screen for Agonists of the DOR Receptor. [Related pubchem assays (depositor defined):AID1777, AID1786, AID2133].
The target of test [3] is T2, Kappa-type opioid receptor (Homo sapiens, UniProt P41145).
Test [4] has as its target T1, Delta-type opioid receptor. Kind of test: HTS Image-Based Screen for Antagonists of the DOR Receptor. [Related pubchem assays (depositor defined):AID1777, AID1785, AID1786, AID2133].
Test [5] has as its target T2, Kappa-type opioid receptor. This is another data set of the same source.
Test [6] concerns the target T3, G-protein coupled receptor 55 (Homo sapiens, UniProt Q9Y2T6). The experiment in a line: GPR55 antagonist potency of analogs, SAR follow-up, imaging, U2OS, beta-arrestin-GFP, LPI agonist, set 2 (AID 2820).
The target of test [7] is T4, Cannabinoid receptor 2 (Homo sapiens, UniProt P34972). Kind of test: SAR analysis of agonists of the Cannabinoid Receptor 2 using an Image-Based Assay. [Related pubchem assays (depositor defined):AID2013, AID2026].
In test [8] the target is T5, G-protein coupled receptor 35 (Homo sapiens, UniProt Q9HC97). The experiment in a line: SAR analysis of Agonists of the GPR35 Receptor using an Image-Based Assay - Set 2. [Related pubchem assays (depositor defined):AID2013, AID2026].
In test [9] the target is T6, Cannabinoid receptor 1 (Homo sapiens, UniProt P21554). The experiment in a line: SAR analysis of antagonists of the Cannabinoid Receptor 1 using an Image-Based Assay - Set 2. [Related pubchem assays (depositor defined):AID2013, AID2026].
Test [10] concerns the target T6, Cannabinoid receptor 1. The experiment in a line: SAR analysis of agonists of the Cannabinoid Receptor 1 using an Image-Based Assay - Set 2. [Related pubchem assays (depositor defined):AID2013, AID2026].
Test [11] concerns the target T5, G-protein coupled receptor 35. Kind of test: SAR analysis of Antagonists of the GPR35 Receptor using an Image-Based Assay - Set 3. [Related pubchem assays (depositor defined):AID2013, AID2026].
For test [12], the target named is T3, G-protein coupled receptor 55. The experiment in a line: GPR55 antagonists blocking LPI-driven arrestin recruitment, primary screen, imaging, U2OS, beta-arrestin-GFP, LPI agonist (AID 2013).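 Note: antagonist potency measured as reduced agonist-driven arrestin aggregation.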 For orientation: Arrestin recruitment assays detect the binding of arrestin to an activated receptor.
The target of test [13] is T4, Cannabinoid receptor 2. The experiment in a line: SAR analysis of antagonists of the Cannabinoid Receptor 2 using an Image-Based Assay. [Related pubchem assays (depositor defined):AID2013, AID2026].
The target of test [14] is T7, Intestinal-type alkaline phosphatase (Homo sapiens, UniProt P09923). Kind of test: human intestinal alkaline phosphatase activators, dose response, biochemical, luminescence, uHTS hits (AID 463120).
Test [15] has as its target T7, Intestinal-type alkaline phosphatase. The experiment in a line: Dose Response confirmation of uHTS hits from a small molecule inhibitors of human intestinal alkaline phosphatase via a luminescent assay. [Related pubchem assays (depositor defined):AID2544, AID2574].

A word on the EC50: it is the concentration giving half of the maximal effect. Usually IC50 stands for the concentration that gives 50% inhibition.

Calls of active or inactive are those of the source.

T2 sequence (P41145 whole entry): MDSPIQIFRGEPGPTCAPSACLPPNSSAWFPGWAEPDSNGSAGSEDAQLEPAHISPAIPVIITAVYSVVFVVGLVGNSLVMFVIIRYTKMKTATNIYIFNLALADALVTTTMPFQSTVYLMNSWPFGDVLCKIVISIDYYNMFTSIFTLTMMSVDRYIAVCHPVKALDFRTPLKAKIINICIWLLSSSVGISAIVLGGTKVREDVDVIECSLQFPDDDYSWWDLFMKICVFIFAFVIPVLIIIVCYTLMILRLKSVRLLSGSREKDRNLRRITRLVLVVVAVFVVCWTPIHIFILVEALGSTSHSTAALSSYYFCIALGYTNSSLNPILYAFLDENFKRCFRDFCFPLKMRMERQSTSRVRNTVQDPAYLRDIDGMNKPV
T7 sequence (P09923 whole entry): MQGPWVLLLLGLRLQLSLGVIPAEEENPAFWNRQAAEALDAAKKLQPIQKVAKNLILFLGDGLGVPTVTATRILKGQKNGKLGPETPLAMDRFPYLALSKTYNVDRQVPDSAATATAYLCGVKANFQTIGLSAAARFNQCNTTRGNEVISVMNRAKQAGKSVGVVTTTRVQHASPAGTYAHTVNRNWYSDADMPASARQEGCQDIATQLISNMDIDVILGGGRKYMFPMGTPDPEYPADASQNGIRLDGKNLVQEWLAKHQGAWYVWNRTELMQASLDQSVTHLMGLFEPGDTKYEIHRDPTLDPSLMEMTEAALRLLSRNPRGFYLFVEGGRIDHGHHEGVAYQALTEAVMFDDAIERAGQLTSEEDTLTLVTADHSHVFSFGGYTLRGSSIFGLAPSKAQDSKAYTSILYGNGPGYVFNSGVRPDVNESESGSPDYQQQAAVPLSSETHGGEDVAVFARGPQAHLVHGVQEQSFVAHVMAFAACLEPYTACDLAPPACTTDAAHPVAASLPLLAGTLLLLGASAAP
T6 sequence (P21554 whole entry): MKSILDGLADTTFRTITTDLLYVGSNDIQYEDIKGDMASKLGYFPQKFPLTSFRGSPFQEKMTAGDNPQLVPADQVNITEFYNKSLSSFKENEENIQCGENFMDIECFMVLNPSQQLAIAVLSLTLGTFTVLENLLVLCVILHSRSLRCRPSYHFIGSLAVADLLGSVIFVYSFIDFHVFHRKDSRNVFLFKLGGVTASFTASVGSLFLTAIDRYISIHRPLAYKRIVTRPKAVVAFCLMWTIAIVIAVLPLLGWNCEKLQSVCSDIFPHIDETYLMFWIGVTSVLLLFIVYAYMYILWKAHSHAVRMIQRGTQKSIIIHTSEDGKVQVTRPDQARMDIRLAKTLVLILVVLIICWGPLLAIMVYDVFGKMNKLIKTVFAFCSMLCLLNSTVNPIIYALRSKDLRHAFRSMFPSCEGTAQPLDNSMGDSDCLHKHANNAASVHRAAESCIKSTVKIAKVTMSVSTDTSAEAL
T3 sequence (Q9Y2T6 whole entry): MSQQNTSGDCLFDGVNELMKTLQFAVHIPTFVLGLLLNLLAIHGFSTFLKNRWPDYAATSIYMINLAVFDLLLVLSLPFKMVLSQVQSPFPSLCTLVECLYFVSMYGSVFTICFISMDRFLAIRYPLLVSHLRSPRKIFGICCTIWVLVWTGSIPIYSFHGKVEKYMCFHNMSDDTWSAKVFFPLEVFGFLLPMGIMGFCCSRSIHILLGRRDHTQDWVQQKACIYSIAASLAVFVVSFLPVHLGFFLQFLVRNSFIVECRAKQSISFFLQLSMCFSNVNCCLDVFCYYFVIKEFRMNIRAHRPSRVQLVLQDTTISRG
T5 sequence (Q9HC97 whole entry): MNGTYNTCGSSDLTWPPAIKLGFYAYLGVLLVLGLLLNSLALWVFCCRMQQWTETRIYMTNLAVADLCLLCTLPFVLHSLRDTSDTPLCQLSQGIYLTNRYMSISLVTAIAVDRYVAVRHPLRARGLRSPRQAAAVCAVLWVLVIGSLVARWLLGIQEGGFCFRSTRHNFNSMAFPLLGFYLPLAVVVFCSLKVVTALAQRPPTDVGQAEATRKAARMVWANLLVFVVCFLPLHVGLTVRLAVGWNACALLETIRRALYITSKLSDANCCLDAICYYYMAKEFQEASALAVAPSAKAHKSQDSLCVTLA
T4 sequence (P34972 whole entry): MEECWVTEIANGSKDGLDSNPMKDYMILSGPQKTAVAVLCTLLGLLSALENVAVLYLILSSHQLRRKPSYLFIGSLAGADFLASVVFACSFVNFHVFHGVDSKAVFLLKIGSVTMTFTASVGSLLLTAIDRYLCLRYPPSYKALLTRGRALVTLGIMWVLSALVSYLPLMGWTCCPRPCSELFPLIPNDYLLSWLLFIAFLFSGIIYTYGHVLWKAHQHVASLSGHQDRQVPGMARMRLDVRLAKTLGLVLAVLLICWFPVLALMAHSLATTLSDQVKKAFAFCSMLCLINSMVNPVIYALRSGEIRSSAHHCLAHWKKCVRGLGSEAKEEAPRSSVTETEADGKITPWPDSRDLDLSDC
T1 sequence (P41143 whole entry): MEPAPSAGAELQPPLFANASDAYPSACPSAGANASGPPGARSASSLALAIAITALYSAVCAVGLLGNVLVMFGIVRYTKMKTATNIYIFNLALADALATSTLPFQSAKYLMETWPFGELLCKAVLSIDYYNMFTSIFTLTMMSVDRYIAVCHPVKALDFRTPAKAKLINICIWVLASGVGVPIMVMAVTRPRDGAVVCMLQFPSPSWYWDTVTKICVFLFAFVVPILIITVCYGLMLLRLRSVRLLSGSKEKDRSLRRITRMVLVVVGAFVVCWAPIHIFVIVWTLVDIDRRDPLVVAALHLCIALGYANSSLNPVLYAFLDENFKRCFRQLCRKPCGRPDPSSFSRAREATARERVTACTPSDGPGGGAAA
Sequence of Mu-type opioid receptor (P35372 whole entry): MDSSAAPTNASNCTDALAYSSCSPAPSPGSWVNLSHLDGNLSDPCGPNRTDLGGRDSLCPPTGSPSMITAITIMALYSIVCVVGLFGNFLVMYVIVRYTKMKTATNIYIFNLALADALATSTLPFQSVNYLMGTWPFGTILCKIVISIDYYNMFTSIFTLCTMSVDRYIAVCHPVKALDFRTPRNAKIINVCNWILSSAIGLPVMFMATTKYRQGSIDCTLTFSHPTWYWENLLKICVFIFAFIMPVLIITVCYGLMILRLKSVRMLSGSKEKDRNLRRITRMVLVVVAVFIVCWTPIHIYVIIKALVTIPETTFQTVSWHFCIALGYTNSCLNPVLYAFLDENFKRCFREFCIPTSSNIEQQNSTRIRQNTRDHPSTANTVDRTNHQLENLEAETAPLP

`COc1ccc(C[C@@H]2CN3C(=NC[C@@H]3C)N2CCNC(=O)c2ccc(C)c(Br)c2)cc1`: the EC50 in test [1] is > 32 µM (inactive); in test [2], > 32 µM (inactive); in test [3], under 0.5 µM; in test [5], 0.118 µM. The IC50 in test [4] is > 32 µM (inactive).
As for `Cc1ccc2c(c1)C(c1ccc(O)cc1)(c1ccc(O)cc1)C(=O)N2C`, the 50% inhibitory concentration (IC50) in test [6] is 1 µM (active); in test [9] it was 5.74 µM (active); in test [11], > 32 µM (inactive); in [12], 1.57 µM (active); in [13], > 32 µM (inactive). The EC50 in test [7], in test [8] and in test [10] was > 32 µM (inactive) each time.
`CN1CCN(CCNC(=O)Cn2c(=O)c3cccn3c3ccc(F)cc32)CC1`: the EC50 in test [14] was > 100 µM (inactive). In test [15], the IC50 is > 100 µM (inactive).

The record behind these values is ChEMBL document CHEMBL1201862, “PubChem BioAssay data set” (2004).
